pKi: −log10 of the molar value.
Legend:
[1] = molecular target: T1, Fe(3+)-Zn(2+) purple acid phosphatase (Phaseolus vulgaris, UniProt P80366); assay: Uncompetitive inhibition of red kidney bean PAP using para-nitrophenol as substrate at pH 4.9 preincubated for 10 mins by UV-visible spectrophotometry
T1 sequence (P80366 whole entry): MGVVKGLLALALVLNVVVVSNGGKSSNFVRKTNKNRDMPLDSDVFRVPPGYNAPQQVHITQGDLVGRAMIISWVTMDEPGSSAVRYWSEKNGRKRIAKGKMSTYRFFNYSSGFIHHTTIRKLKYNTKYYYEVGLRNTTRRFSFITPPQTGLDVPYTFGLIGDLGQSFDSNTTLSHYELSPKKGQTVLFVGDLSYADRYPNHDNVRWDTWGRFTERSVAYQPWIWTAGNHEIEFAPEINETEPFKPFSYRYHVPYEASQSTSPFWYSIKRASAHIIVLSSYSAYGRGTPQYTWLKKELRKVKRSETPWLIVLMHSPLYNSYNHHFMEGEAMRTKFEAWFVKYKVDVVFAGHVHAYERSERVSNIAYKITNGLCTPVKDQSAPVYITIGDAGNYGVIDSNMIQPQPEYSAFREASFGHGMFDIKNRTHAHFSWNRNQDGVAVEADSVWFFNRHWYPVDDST

[2] = molecular target: T1, Fe(3+)-Zn(2+) purple acid phosphatase; assay: Competitive inhibition of red kidney bean PAP using para-nitrophenol as substrate at pH 4.9 preincubated for 10 mins by UV-visible spectrophotometry
[3] = Competitive inhibition of pig PAP using para-nitrophenol as substrate at pH 4.9 preincubated for 10 mins by UV-visible spectrophotometry; design: species or system Sus scrofa
[4] = Uncompetitive inhibition of pig PAP using para-nitrophenol as substrate at pH 4.9 preincubated for 10 mins by UV-visible spectrophotometry; design: species or system Sus scrofa

Row | Structure (SMILES) | pKi [1] | pKi [2] | pKi [3] | pKi [4]
1 | CCCC(=O)NC(c1cccc2ccccc12)P(=O)(O)O (racemic) | 3.18 | 3.62 | 3.44 | 2.84
2 | CCCCCCCC(=O)NC(c1cccc2ccccc12)P(=O)(O)O (racemic) | 3.35 | 3.71 | 4.36 | –
3 | CCCCCCCCCCCCCC(=O)NC(c1cccc2ccccc12)P(=O)(O)O (racemic) | – | 4.96 | 5.10 | –
4 | CCCCCCCCCC(=O)NC(c1cccc2ccccc12)P(=O)(O)O (racemic) | 3.99 | 4.24 | 5.00 | –
5 | CCCCCCC(=O)NC(c1cccc2ccccc12)P(=O)(O)O (racemic) | 3.35 | 3.65 | 3.94 | 3.46
6 | CCCCCCCCCCCCCCCC(=O)NC(c1cccc2ccccc12)P(=O)(O)O (racemic) | – | 4.51 | 4.89 | –
7 | CCCCCCCCCCCC(=O)NC(c1cccc2ccccc12)P(=O)(O)O (racemic) | – | 5.30 | 4.68 | –

Source: ChEMBL document CHEMBL1770077, “Synthesis, modelling and kinetic assays of potent inhibitors of purple acid phosphatase” (Bioorg Med Chem Lett, 2011)
